Usually EC50 stands for the concentration at which the effect is half-maximal. A word on the EC90: it is the concentration needed for an effect of 90%.

The subject of the assay is SARS-CoV-2 (Omicron variant, B.1.1.529.1/BA.1 sublineage). Description: microbe, parasite or virus in culture. It is filed as cell-based. The following applies: for EC50 / EC90: Severe acute respiratory syndrome coronavirus 2, Vero C1008, 48 h; for EC90: read-out: 90% Reduction in Infectious Virus (EC90).
[1] abbreviates: read-out: 50% Reduction in Infectious Virus (EC50).
Setting [2] is: read-out: 50% Reduction in Viral RNA Copy (EC50).
Setting [3] is: after starting administration and treatment.

“And” between values parts separate entries of the source, which are not always exact repeats. Identical values can stand only once. Like-named read-outs stand apart in the source and are kept apart here.

Consider `Nc1nnc([C@H](O)[C@@H](O)c2nnc(N)s2)s1` [Taroxaz-26, (1R,2R)-1,2-bis(5-amino-1,3,4-thiadiazol-2-yl)ethane-1,2-diol], for which the “100% CPE Inhibitory Concentration (CPEIC100)” value is 1.83 µM and 1.83 ± 0.07 µM; the EC90 was 2340 ± 80 nM. The EC50 under setting [1] was found to be 730 ± 30 nM. In addition, the EC50 under setting [2] was determined as 770 ± 40 nM. Also, the “Time to maximal effectiveness against the Omicron-variant particles” value (shortened to “Time to maximal effectiveness”) under setting [3] lay within 4 to 10 h.

Consider `Nc1nnc(-c2cnc3cc(Cl)ccc3c2O)s1` [ChloViD2022, 3-(5-amino-1,3,4-thiadiazol-2-yl)-7-chloroquinolin-4-ol], for which the “100% CPE Inhibitory Concentration (CPEIC100)” value was 1.09 µM and 1.09 ± 0.04 µM; the EC90 worked out at 1530 ± 50 nM. Under setting [1], the half-maximal effective concentration (EC50) is 410 ± 20 nM. The EC50 under setting [2] is 440 ± 20 nM. For the same molecule, the “Time to maximal effectiveness” value under setting [3] lay in the range of 4 to 10 h.

As to `CC(C)C(=O)OC[C@H]1O[C@@H](n2ccc(NO)nc2=O)[C@H](O)[C@@H]1O` [Molnupiravir, molnupiravir, reference compound], the “100% CPE Inhibitory Concentration (CPEIC100)” value is 6.25 µM and 6.25 ± 0.31 µM; the EC90 amounted to 9160 ± 370 nM.

Turning to `Nc1nnc(CC(O)(Cc2nnc(N)s2)c2nnc(N)s2)s1` [CoViTris2022, 1,2,3-tris(5-amino-1,3,4-thiadiazol-2-yl)propan-2-ol], the “100% CPE Inhibitory Concentration (CPEIC100)” value was 1.60 ± 0.06 µM, the “Time to maximal effectiveness” value lay in the range of 4 to 10 h and the EC90 was 2010 ± 70 nM. Further, under setting [1], the EC50 amounted to 690 ± 30 nM. For the same molecule, under setting [2], the EC50 was determined as 700 ± 40 nM.
